PubChem BioAssay (NCI)
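Grown in 96-well plates, cells were treated for 48 hours with each compound at five concentrations. Insufficient inhibition: endpoint recorded as highest concentration tested. TGI marks complete inhibition of growth.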

How the values were obtained:
Assay in all cases: NCI anticancer screen, dose series, 48 h
[1] = test system: 786-0 renal
[2] = test system: A498 renal
[3] = test system: A549 NSCLC
[4] = test system: ACHN renal
[5] = test system: CAKI-1 renal
[6] = test system: CCRF-CEM leukemia
[7] = test system: DU-145 prostate
[8] = test system: EKVX NSCLC
[9] = test system: HCC-2998 colon
[10] = test system: HCT-116 colon
[11] = test system: HCT-15 colon
[12] = test system: HL-60(TB) leukemia
[13] = test system: HOP-62 NSCLC
[14] = test system: HOP-92 NSCLC
[15] = test system: HS 578T breast
[16] = test system: HT29 colon
[17] = test system: IGROV1 ovarian
[18] = test system: K-562 leukemia
[19] = test system: KM12 colon
[20] = test system: LOX IMVI melanoma
[21] = test system: M14 melanoma
[22] = test system: MALME-3M melanoma
[23] = test system: MCF7 breast
[24] = test system: MDA-MB-231 breast
[25] = test system: MDA-MB-435
[26] = test system: MDA-N
[27] = test system: MOLT-4 leukemia
[28] = test system: NCI-H226 lung
[29] = test system: NCI-H23 lung
[30] = test system: NCI-H460 lung
[31] = test system: NCI-H522 lung
[32] = test system: NCI/ADR-RES ovarian
[33] = test system: OVCAR-3 ovarian
[34] = test system: OVCAR-4 ovarian
[35] = test system: OVCAR-5 ovarian
[36] = test system: OVCAR-8 ovarian
[37] = test system: PC-3 prostate
[38] = test system: RPMI-8226 leukemia
[39] = test system: RXF 393 renal
[40] = test system: SF-268 CNS
[41] = test system: SF-295 CNS
[42] = test system: SF-539 CNS
[43] = test system: SK-MEL-28 melanoma
[44] = test system: SK-MEL-5 melanoma
[45] = test system: SN12C renal
[46] = test system: SNB-19 CNS
[47] = test system: SNB-75 CNS
[48] = test system: SR leukemia
[49] = test system: SW-620 colon
[50] = test system: T-47D breast
[51] = test system: TK-10 renal
[52] = test system: U251 CNS
[53] = test system: UACC-257 melanoma
[54] = test system: UO-31 renal

Measured: TGI

CCOC(=O)C1(N)CC1
> 100 µM: [1] | [2] | [3] | [4] | [5] | [6] | [7] | [8] | [9] | [10] | [11] | [12] | [13] | [14] | [15] | [16] | [17] | [18] | [19] | [20] | [21] | [22] | [23] | [24] | [25] | [26] | [27] | [28] | [29] | [30] | [31] | [32] | [33] | [34] | [35] | [36] | [37] | [38] | [39] | [40] | [41] | [42] | [43] | [44] | [45] | [46] | [47] | [48] | [49] | [50] | [51] | [52] | [53] | [54]
